Values quoted from earlier work as cited in patent US20040241252A1, “Pharmaceutical compositions for oral administration comprising lithium carbonate, processes of making the same, and methods of administering the same” (priority 2003, published 2004).

SMILES	mean absorption half-time (single liquefied dose, volunteers)	time to complete absorption (oral, gastrointestinal tract)	fraction of a single dose eliminated in the urine (single dose)
[Cl-].[Li+] [lithium chloride]	0.15 h		
[Li+] [Li^+, lithium ion]		about 8 hours	Ninety-five
